Like-named read-outs stand apart in the source and are kept apart here.
Columns and labels:
Human KLK1 = Human KLK1 (Homo sapiens (Human), UniProt P06870); assay: Determination of the IC50 for KLK1; format: biochemical; settings: Human KLK1, 37° C., substrate H-DVal-Leu-Arg-AFC
Protocol: Determination of the IC50 for KLK1
(§1) KLK1 inhibitory activity in vitro was determined using standard published methods (see e.g. Johansen et al., Int. J. Tiss. Reac. 1986, 8, 185; Shori et al., Biochem. Pharmacol., 1992, 43, 1209; Stürzebecher et al., Biol. Chem. Hoppe-Seyler, 1992, 373, 1025). Human KLK1 (Callbiochem) was incubated at 37° C. with the fluorogenic substrate H-DVal-Leu-Arg-AFC and various concentrations of the test compound. Residual enzyme activity (initial rate of reaction) was determined by measuring the change in optical absorbance at 410 nm and the IC50 value for the test compound was determined.

Human plasma kallikrein = Human plasma kallikrein (Homo sapiens (Human), UniProt P03952); assay: Determination of the IC50 for plasma kallikrein; format: biochemical; settings: 37° C., read-out: IC50 (human PKal)
Chain of Human plasma kallikrein (P03952 391-638): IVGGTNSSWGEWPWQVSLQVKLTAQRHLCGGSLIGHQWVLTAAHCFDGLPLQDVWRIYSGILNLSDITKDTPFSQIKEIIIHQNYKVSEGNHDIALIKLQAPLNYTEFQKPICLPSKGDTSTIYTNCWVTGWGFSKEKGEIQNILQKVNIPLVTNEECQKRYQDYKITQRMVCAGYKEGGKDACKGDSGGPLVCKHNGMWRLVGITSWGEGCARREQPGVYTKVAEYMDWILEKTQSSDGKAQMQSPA
Chain of Human plasma kallikrein (P03952 20-390 partner): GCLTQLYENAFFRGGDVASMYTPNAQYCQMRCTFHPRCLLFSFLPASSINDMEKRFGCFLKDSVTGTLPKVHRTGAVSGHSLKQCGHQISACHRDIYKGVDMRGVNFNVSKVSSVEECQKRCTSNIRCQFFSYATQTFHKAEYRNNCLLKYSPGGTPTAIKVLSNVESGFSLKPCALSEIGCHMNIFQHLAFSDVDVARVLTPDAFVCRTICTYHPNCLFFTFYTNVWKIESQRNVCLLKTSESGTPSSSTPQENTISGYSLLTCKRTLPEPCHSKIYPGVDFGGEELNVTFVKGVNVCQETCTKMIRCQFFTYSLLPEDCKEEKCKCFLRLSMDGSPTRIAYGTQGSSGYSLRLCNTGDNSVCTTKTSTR
Protocol: Determination of the IC50 for Plasma Kallikrein
as §1, with “Plasma kallikrein” for “KLK1”, “Stiirzebecher” for “Stürzebecher”, “plasma kallikrein (Protogen)” for “KLK1 (Callbiochem)”, “H-DPro-Phe-Arg-AFC” for “H-DVal-Leu-Arg-AFC”

[1] = fluorogenic substrate H-DPro-Phe-Arg-AFC

Chain of Human KLK1 (P06870 25-262): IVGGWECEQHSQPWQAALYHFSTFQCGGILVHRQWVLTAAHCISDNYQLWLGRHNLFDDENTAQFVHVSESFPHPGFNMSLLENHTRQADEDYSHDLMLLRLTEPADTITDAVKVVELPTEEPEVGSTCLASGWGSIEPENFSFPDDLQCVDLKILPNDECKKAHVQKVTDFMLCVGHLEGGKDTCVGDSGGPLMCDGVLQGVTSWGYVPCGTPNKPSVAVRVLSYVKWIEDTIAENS

Structure (SMILES)	IC50 (Human KLK1; Table 13) [µM]	IC50 (Human plasma kallikrein; substrate H-DPro-Phe-Arg-AFC) [µM]	IC50 (Human KLK1; Table 12) [µM]	IC50 (Human plasma kallikrein; [1]) [µM]
CCOc1ccc(C[C@@H](NC(=O)c2ccc(OC(F)(F)F)cc2)C(=O)N[C@@H](Cc2ccccc2)C(=O)NCc2ccc(CN)cc2)cc1 [Example 80, N-[(R)-1-[(S)-1-(4-Aminomethyl-benzylcarbamoyl)-2-phenyl-ethylcarbamoyl]-2-(4-ethoxy-phenyl)-ethyl]-4-trifluoromethoxy-benzamide]	> 10	0.398		
CCOc1ccc(C[C@@H](NC(=O)N(CC)Cc2ccccc2)C(=O)N[C@@H](Cc2ccccc2)C(=O)NCc2ccc(CN)cc2)cc1 [Example 103, (R)-N-[(S)-1-(4-Aminomethyl-benzylcarbamoyl)-2-phenyl-ethyl]-2-(3-benzyl-3-ethyl-ureido)-3-(4-ethoxy-phenyl)-propionamide]	> 10	10		
CCOc1ccc(C[C@@H](NC(=O)CC)C(=O)N[C@@H](Cc2ccccc2)C(=O)NCc2ccc(CN)c(Cl)c2)cc1 [Example 23, (S)-N-(4-Aminomethyl-3-chloro-benzyl)-2-[(R)-3-(4-ethoxy-phenyl)-2-propionylamino-propionylamino]-3-phenyl-propionamide]			5.6	0.031
CCOc1ccc(C[C@@H](NC(=O)c2ccco2)C(=O)N[C@@H](Cc2ccccc2)C(=O)NCc2ccc(CN)cc2)cc1 [Example 118, Furan-2-carboxylic acid [(R)-1-[(S)-1-(4-aminomethyl-benzylcarbamoyl)-2-phenyl-ethylcarbamoyl]-2-(4-ethoxy-phenyl)-ethyl]-amide]	> 10	0.061		
CCOc1ccc(C[C@@H](C(=O)N[C@@H](Cc2ccccc2)C(=O)NCc2ccc(CN)cc2)N(C)C(=O)CC)cc1 [Example 66, (S)-N-(4-Aminomethyl-benzyl)-2-[(S)-3-(4-ethoxy-phenyl)-2-(methyl-propionyl-amino)-propionylamino]-3-phenyl-propionamide]			8.4	10
CCOc1ccc(C[C@@H](NC(=O)c2ccccc2)C(=O)N[C@@H](Cc2ccc(C(F)(F)F)cc2)C(=O)NCc2ccc(CN)cc2)cc1 [Example 148, N-[(R)-1-[(S)-1-(4-Aminomethyl-benzylcarbamoyl)-2-(4-trifluoromethyl-phenyl)-ethylcarbamoyl]-2-(4-ethoxy-phenyl)-ethyl]-benzamide]	> 10	0.934		
NCc1ccc(CNC(=O)[C@H](Cc2ccccc2)NC(=O)[C@@H](Cc2ccc(OCc3ccc(F)cc3)cc2)NC(=O)c2ccccc2)cc1 [Example 130, N-{(R)-1-[(S)-1-(4-Aminomethyl-benzylcarbamoyl)-2-phenyl-ethylcarbamoyl]-2-[4-(4-fluoro-benzyloxy)-phenyl]-ethyl}-benzamide]	> 10	2.49		
CCOc1ccc(C[C@@H](NC(=O)c2ccccc2)C(=O)N[C@@H](Cc2cccc(C(F)(F)F)c2)C(=O)NCc2ccc(CN)cc2)cc1 [Example 144, N-[(R)-1-[(S)-1-(4-Aminomethyl-benzylcarbamoyl)-2-(3-trifluoromethyl-phenyl)-ethylcarbamoyl]-2-(4-ethoxy-phenyl)-ethyl]-benzamide]	> 10	0.34		
NCc1ccc(CNC(=O)[C@H](Cc2ccccc2)NC(=O)[C@@H](Cc2ccc(OCc3cccc(F)c3)cc2)NC(=O)c2ccccc2)cc1 [Example 136, N-{(R)-1-[(S)-1-(4-Aminomethyl-benzylcarbamoyl)-2-phenyl-ethylcarbamoyl]-2-[4-(3-fluoro-benzyloxy)-phenyl]-ethyl}-benzamide]	> 10	1.02		
CCOc1ccc(C[C@@H](NC(=O)CC)C(=O)N[C@@H](Cc2ccc(Cl)c(Cl)c2)C(=O)NCc2ccc(CN)cc2)cc1 [Example 16, (S)-N-(4-Aminomethyl-benzyl)-3-(3,4-dichloro-phenyl)-2-[(R)-3-(4-ethoxy-phenyl)-2-propionylamino-propionylamino]-propionamide]			4.9	0.053
CN(CCO)[C@H](CC1CCCCC1)C(=O)N[C@@H](Cc1ccccc1)C(=O)NCc1ccc(CN)cc1 [Example 49, (R)-N-[(S)-1-(4-Aminomethyl-benzylcarbamoyl)-2-phenyl-ethyl]-3-cyclohexyl-2-[(2-hydroxy-ethyl)-methyl-amino]-propionamide]			> 10	2.2
CCOc1ccc(C[C@@H](NC(=O)c2cccs2)C(=O)N[C@@H](Cc2ccc(Cl)c(Cl)c2)C(=O)NCc2ccc(CN)cc2)cc1 [Example 169, Thiophene-2-carboxylic acid [(R)-1-[(S)-1-(4-aminomethyl-benzylcarbamoyl)-2-(3,4-dichloro-phenyl)-ethylcarbamoyl]-2-(4-ethoxy-phenyl)-ethyl]-amide]	9.9	0.044		
CCOc1ccc(C[C@@H](NC(=O)C2CC2)C(=O)N[C@@H](Cc2ccccc2)C(=O)NCc2ccc(CN)cc2)cc1 [Example 74, Cyclopropanecarboxylic acid [(R)-1-[(S)-1-(4-aminomethyl-benzylcarbamoyl)-2-phenyl-ethylcarbamoyl]-2-(4-ethoxy-phenyl)-ethyl]-amide]	> 10	0.545		
CCOc1ccc(C[C@@H](NC(=O)c2ccc(C)nc2)C(=O)N[C@@H](Cc2ccccc2)C(=O)NCc2ccc(CN)cc2)cc1 [Example 104, N-[(R)-1-[(S)-1-(4-Aminomethyl-benzylcarbamoyl)-2-phenyl-ethylcarbamoyl]-2-(4-ethoxy-phenyl)-ethyl]-6-methyl-nicotinamide]	> 10	0.159		
CCOc1ccc(C[C@@H](NC(=O)CC(F)(F)F)C(=O)N[C@@H](Cc2ccccc2)C(=O)NCc2ccc(CN)cc2)cc1 [Example 109, N-[(R)-1-[(S)-1-(4-Aminomethyl-benzylcarbamoyl)-2-phenyl-ethylcarbamoyl]-2-(4-ethoxy-phenyl)-ethyl]-3,3,3-trifluoro-propionamide]	> 10	0.155		
CCOc1ccc(C[C@@H](NC(=O)CC)C(=O)N[C@@H](Cc2ccccn2)C(=O)NCc2ccc(CN)cc2)cc1 [Example 166, (R)-N-[(S)-1-(4-Aminomethyl-benzylcarbamoyl)-2-pyridin-2-yl-ethyl]-3-(4-ethoxy-phenyl)-2-propionylamino-propionamide]	> 10	0.262		
CCOc1ccc(C[C@@H](NC(=O)c2cc(F)nc(F)c2F)C(=O)N[C@@H](Cc2ccccc2)C(=O)NCc2ccc(CN)cc2)cc1 [Example 108, N-[(R)-1-[(S)-1-(4-Aminomethyl-benzylcarbamoyl)-2-phenyl-ethylcarbamoyl]-2-(4-ethoxy-phenyl)-ethyl]-2,3,6-trifluoro-isonicotinamide]	> 10	0.232		
CCOc1ccc(C[C@@H](NC(=O)c2ccc(Cl)nc2Cl)C(=O)N[C@@H](Cc2ccccc2)C(=O)NCc2ccc(CN)cc2)cc1 [Example 106, N-[(R)-1-[(S)-1-(4-Aminomethyl-benzylcarbamoyl)-2-phenyl-ethylcarbamoyl]-2-(4-ethoxy-phenyl)-ethyl]-2,6-dichloro-nicotinamide]	8.4	0.256		
CN(CC(N)=O)[C@H](CC1CCCCC1)C(=O)N[C@@H](Cc1ccccc1)C(=O)NCc1ccc(CN)cc1 [Example 48, (R)-N-[(S)-1-(4-Aminomethyl-benzylcarbamoyl)-2-phenyl-ethyl]-2-(carbamoylmethyl-methyl-amino)-3-cyclohexyl-propionamide]			> 10	4.7
NCc1ccc(CNC(=O)[C@H](Cc2ccccc2)NC(=O)[C@@H](CC2CCCCC2)NC(=O)c2ccccc2)cc1 [Example 126, N-{(R)-1-[(S)-1-(4-Aminomethyl-benzylcarbamoyl)-2-phenyl-ethylcarbamoyl]-2-cyclohexyl-ethyl}-benzamide]	> 10	4.01		
CCCCCCNC(=O)N[C@H](Cc1ccc(OCC)cc1)C(=O)N[C@@H](Cc1ccccc1)C(=O)NCc1ccc(CN)cc1 [Example 78, (R)-N-[(S)-1-(4-Aminomethyl-benzylcarbamoyl)-2-phenyl-ethyl]-3-(4-ethoxy-phenyl)-2-(3-hexyl-ureido)-propionamide]	> 10	10		
NCc1ccc(CNC(=O)[C@H](Cc2ccccc2)NC(=O)[C@@H](Cc2ccc(OCc3c(Cl)cccc3Cl)cc2)NC(=O)c2ccccc2)cc1 [Example 134, N-{(R)-1-[(S)-1-(4-Aminomethyl-benzylcarbamoyl)-2-phenyl-ethylcarbamoyl]-2-[4-(2,6-dichloro-benzyloxy)-phenyl]-ethyl}-benzamide]	> 10	10		
CCOc1ccc(C[C@@H](NC(=O)c2ccccc2)C(=O)N[C@@H](Cc2c[nH]cn2)C(=O)NCc2ccc(CN)cc2)cc1 [Example 177, N-[(R)-1-[(S)-1-(4-Aminomethyl-benzylcarbamoyl)-2-(1H-imidazol-4-yl)-ethylcarbamoyl]-2-(4-ethoxy-phenyl)-ethyl]-benzamide]	> 10	0.457		

— patent US9234000B2, “Benzylamine derivatives as inhibitors of plasma kallikrein” (KalVista Pharmaceuticals Limited, priority 2011, dated 2016)
